Patent US11965041B2, “N-methylated cyclic peptides and their prodrugs” (TECHNISCHE UNIVERSITAET MUENCHEN, priority 2017, dated 2024)
“Also recorded” adds a separate entry of the source. Like-named read-outs stand apart in the source and are kept apart here. Values belong to the compound of their own block, whether it stands above or below them. Numbered stars: 1 amine (or outer) side, 2 acyl side, 3 side chain; on linkers, the order of the positions; unused ones are H or OH. Square brackets hold non-standard residues; d marks the D form. Peptide text beside a SMILES is read from it. X3 = CCCCCCOC(=O)N=C(NCCC[C@H](C(=O)[*:2])N(C)[*:1])NC(=O)OCCCCCC; X1 = CCCCCCOC(=O)N=C(NCCC[C@@H](N[*:1])C(=O)[*:2])NC(=O)OCCCCCC; X2 = CCCCCCOC(=O)N=C(N)NCCC[C@H](N[*:1])C(=O)[*:2]; dNMeV = CN[C@@H](C(=O)O)C(C)C; NMeA = CN[C@@H](C)C(=O)O

Columns and labels:
[1] = Pharmacokinetic study in rats after oral administration; type: in vivo, Wistar rats; details: rat, oral 5 mg/kg; peptide 12 measured in plasma; 12P given as dispersed 12P SNEDDS
Experimental: In Vivo Studies. Male Wistar rats (Harlan, Israel), 275-300 g in weight, were used for all surgical procedures. Animals were anesthetized for the period of surgery by intraperitoneal injection of 1 mL/kg of ketamine/xylazine solution (9:1), placed on a heated surface, and maintained at 37° C. (Harvard Apparatus Inc., Holliston, MA). An indwelling cannula was placed in the right jugular vein of each animal for systemic blood sampling, by a method described before. The cannula was tunneled beneath the skin and exteriorized at the dorsal part of the neck. After completion of the surgical procedure, the animals were transferred to cages to recover overnight (12-18 h). During this recovery period, food but not water was deprived. Throughout the experiment, free access to food was available 4 h post oral administration. Animals were randomly assigned to the different experimental groups. […] Dispersed 12P SNEDDS (5 mg/kg) was administered to the animals by oral gavage (n=3). Systemic blood samples (0.35 mL) were taken at 5 min predose, 20, 40, 60, 90, 180, 240, and 360 min postdose. To prevent dehydration, equal volumes of physiological solution were administered to the rats following each withdrawal of blood sample. Plasma was separated by centrifugation (5322 g, 10 min) and stored at −20° C. pending analysis. In the 12P pharmacokinetic study, the parent peptide, 12, was analytically determined.
Pharmacokinetic Analysis. The area under the plasma concentration-time curve (AUC) was calculated by using the trapezoidal rule with extrapolation to infinity by dividing the last measured concentration by the elimination rate constant (kel). The elimination rate constant values were determined by a linear regression analysis using the last points on the logarithmic plot of the plasma concentration versus the time curve. Pharmacokinetic parameters, such Tmax, Cmax, clearance (CL), volume of distribution (V), and bioavailability, were calculated using noncompartmental analysis.
Analytical Methods. Plasma or BBMV samples were spiked with metoprolol (1.5 μg/mL) as an internal standard. ACN was added to each sample (2:1) and vortex-mixed for 1 min. The samples were then centrifuged (14 635 g, 10 min), and the supernatant was transferred to fresh glass tubes and evaporated to dryness (Vacuum Evaporation System, Labconco, Kansas City, MO, USA). Then, the glass tubes were reconstituted in 80 μL of mobile phase and centrifuged a second time (14 635 g, 10 min). The amount of the compounds was determined using an HPLC-MS Waters 2695 Separation Module, equipped with a Micromass ZQ detector. The resulting solution was injected (10 μL) into the HPLC system. The system was conditioned as follows: for parent drug peptides (including 12), a Kinetex 2.6 μm HILIC 100 Å, 100 mm×2.1 mm column (Phenomenex, Torrance, CA, USA), an isocratic mobile phase, and an acetonitrile:water:ammonium acetate buffer 50 mM (70:10:20, v/v/v) was used; and for the prodrug peptides (including 12P), a Luna (Phenomenex) 3 μm C8 100 Å, 100 mm×2.0 mm column and an isocratic mobile phase of ACN:water supplemented with 0.1% formic acid (70:30, v/v) and a flow rate of 0.2 mL/min at 25° C. was used. The limit of quantification for all of the peptides and prodrugs was 25 ng/mL.
The pharmacokinetic in-vivo study allows a further evaluation of the prodrug concept in the whole animal. The PK studies were performed in conscious Wistar male rats. An indwelling cannula was implanted in the jugular vein 24 hours before the PK experiment to allow full recovery of the animals from the surgical procedure. Animals (n=4) received either an IV bolus dose or oral dose of the investigated compound. Blood samples (with heparin, 15 U/ml) were collected at several time points for up to 6 hours post administration and was assayed by HPLC-MS method. Non-compartmental pharmacokinetic analysis was performed using WinNonlin software.

[2] = Caco-2 permeability study (Examples 1, 2 and 4, Table 3); type: in vitro ADME, human; details: for Papp B→A at 150 min, 10 μg/ml / Papp A→B at 150 min, 10 μg/ml: human; for efflux ratio: Table 3
[3] = Metabolic stability in rat plasma; type: in vitro ADME; details: 37° C., up to 90 minutes
Experimental: The enzymatic reactions were performed as follows: 2 mM stock solutions of the tested compounds were diluted with serum or purified brush border membrane vesicles (BBMVs) solution to a final concentration of 0.5 mM. During incubation at 37° C. samples were taken for a period of 90 minutes. The enzymatic reaction was stopped by adding 1:1 v/v of ice cold acetonitrile and centrifuge (4000 g, 10 min) before analysis. Preparation of BBMVs: The BBMVs was prepared from combined duodenum, jejunum, and upper ileum (male Wistar rats) by a Ca^++ precipitation method. Purification of the BBMVs was assayed using GGT, LAP and alkaline phosphatase as membrane enzyme markers
Peptides 12 and 12p were subjected to rat plasma and followed their degradation. Rat plasma is known to be rich with esterases.

in vitro = details: human, Caco-2, pH 7.4
[4] = for Papp A→B: Caco-2, Papp (AB); for Papp B→A: Caco-2, Papp (BA)
[5] = pH 7.4, LogD
human αvβ3-integrin = molecular target: T1, human αvβ3-integrin (Homo sapiens, UniProt P05106+P06756); experiment: Solid-phase integrin binding assay, αvβ3
T1 construct: purchased R&D
T1 sequence (P06756 31-992 limits assumed): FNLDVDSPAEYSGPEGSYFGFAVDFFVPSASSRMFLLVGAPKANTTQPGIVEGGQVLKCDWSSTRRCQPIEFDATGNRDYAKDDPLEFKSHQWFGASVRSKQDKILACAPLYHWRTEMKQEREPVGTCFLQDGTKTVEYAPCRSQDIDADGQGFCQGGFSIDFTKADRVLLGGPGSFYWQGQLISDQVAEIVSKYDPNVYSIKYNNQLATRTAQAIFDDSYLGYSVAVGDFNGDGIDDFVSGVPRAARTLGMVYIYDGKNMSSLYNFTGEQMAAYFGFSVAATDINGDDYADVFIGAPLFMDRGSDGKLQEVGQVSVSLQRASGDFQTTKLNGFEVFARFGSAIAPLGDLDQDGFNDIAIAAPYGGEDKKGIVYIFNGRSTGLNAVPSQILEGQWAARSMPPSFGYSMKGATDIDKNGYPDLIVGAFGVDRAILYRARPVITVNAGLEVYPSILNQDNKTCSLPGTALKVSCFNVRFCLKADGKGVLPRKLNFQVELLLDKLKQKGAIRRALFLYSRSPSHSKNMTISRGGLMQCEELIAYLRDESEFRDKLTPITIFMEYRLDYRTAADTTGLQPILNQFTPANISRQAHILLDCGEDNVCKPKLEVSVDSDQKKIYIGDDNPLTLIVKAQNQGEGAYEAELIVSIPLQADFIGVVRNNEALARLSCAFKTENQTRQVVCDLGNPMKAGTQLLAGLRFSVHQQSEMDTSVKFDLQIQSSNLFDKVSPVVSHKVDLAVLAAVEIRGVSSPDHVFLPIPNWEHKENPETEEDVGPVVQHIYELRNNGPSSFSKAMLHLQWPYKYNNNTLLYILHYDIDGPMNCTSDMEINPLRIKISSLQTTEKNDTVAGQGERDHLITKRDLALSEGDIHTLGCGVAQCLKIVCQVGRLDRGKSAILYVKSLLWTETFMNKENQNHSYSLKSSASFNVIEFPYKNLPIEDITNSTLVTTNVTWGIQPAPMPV
T1 sequence (P05106 27-718 limits assumed): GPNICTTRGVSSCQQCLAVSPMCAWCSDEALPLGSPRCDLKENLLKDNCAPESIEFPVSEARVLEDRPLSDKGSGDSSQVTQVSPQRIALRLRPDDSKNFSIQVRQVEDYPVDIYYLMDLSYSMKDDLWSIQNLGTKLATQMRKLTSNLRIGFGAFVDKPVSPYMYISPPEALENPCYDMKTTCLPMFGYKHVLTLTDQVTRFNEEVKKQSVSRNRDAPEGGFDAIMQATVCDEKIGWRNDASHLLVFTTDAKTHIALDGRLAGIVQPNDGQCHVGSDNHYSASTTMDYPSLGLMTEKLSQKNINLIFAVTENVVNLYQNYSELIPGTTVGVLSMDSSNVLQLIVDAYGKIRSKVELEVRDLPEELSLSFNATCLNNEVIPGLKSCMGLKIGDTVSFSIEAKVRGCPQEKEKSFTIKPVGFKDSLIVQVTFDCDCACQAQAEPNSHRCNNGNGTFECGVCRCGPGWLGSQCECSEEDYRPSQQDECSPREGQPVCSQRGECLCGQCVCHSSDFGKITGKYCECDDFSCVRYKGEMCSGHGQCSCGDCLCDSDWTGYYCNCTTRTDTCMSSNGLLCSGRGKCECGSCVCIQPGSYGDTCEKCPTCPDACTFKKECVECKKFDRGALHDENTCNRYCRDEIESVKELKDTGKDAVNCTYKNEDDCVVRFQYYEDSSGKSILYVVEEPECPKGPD

[6] = Log D, octanol/PBS distribution coefficient; details: for logD at 1 h: pH 7.4, LogD
Caco-2 cells = experiment: Caco-2 bidirectional permeability with or without verapamil (Example 6)
[7] = as above; details: human, 90 min, without verapamil; for Papp A→B at 90 min, 10 μM: Caco-2, pH 7.4, Papp (AB); for Papp B→A at 90 min, 10 μM: Caco-2, pH 7.4, Papp (BA)
[8] = Caco-2, Table 3, n = 3, read-out: Papp AB
[9] = pH 7.4, reported value (mean or bound)
[10] = Caco-2, Table 3, n = 3, read-out: Papp BA

SMILES: C[C@@H]1NC(=O)[C@H](CC(=O)O)NC(=O)CNC(=O)[C@H](CCCNC(=N)N)NC(=O)[C@@H](C)N(C)C(=O)[C@H](C)N(C)C1=O [Peptide 12, c(*aRGDA*A)]
- Kel [1]: 0.04 ± 0.005 min⁻¹
- Papp B→A at 150 min, 10 μg/ml ([2]; Caco-2, Table 3, n = 3): 1.2 ± 0.1 nm/s
- Papp A→B at 150 min, 10 μg/ml [2, 8]: 0.4 ± 0.2 nm/s
- metabolic stability in rat plasma, in words [3]: remained stable

- efflux ratio at 90 min, 10 µM (in vitro): 1
- permeability in the PAMPA-GIT model system: low permeability
- Papp A→B ([4]; Mean): 3 nm/s
- Papp A→B ([4]; replicate 1): 3 nm/s
- Papp A→B ([4]; replicate 2): 3 nm/s
- Papp A→B ([4]; replicate 3): 2 nm/s
- Papp B→A ([4]; Mean): 3 nm/s
- Papp B→A ([4]; replicate 1): 2 nm/s
- Papp B→A ([4]; replicate 2): 2 nm/s
- Papp B→A ([4]; replicate 3): 3 nm/s
- logD [5, 9]: 1.85
- logD ([5]; pH 7.4, single determinations): 1.91
SMILES: CCCCCCOC(=O)N=C(N)NCCC[C@@H]1NC(=O)[C@@H](C(C)C)N(C)C(=O)[C@H](C)N(C)C(=O)[C@H](C)NC(=O)[C@H](CC(=O)OC)NC(=O)CNC1=O [#29P-Hoc] (cyclo(A[NMeA][dNMeV][X2]GD(OMe)))

- efflux ratio at 90 min, 10 µM (in vitro): 1.1
- Permeability, replicate 1 (PAMPA, pH 7.4): Outlier −8.1 Log10[10^−6 cm/s]
- Papp A→B ([4]; Mean): 3 nm/s
- Papp A→B ([4]; replicate 1): 6 nm/s
- Papp A→B ([4]; replicate 2): 2 nm/s
- Papp A→B ([4]; replicate 3): 2 nm/s
- Papp B→A ([4]; Mean): 3 nm/s
- Papp B→A ([4]; replicate 1): 4 nm/s
- Papp B→A ([4]; replicate 2): 3 nm/s
- Papp B→A ([4]; replicate 3): 3 nm/s
- logD [5, 9]: 3.95
- logD ([5]; pH 7.4, single determinations): 3.76
SMILES: CCCCCCOC(=O)N=C(NCCC[C@@H]1NC(=O)[C@H](C(C)C)N(C)C(=O)[C@@H](Cc2ccccc2)NC(=O)[C@H](CC(=O)OC)NC(=O)CNC1=O)NC(=O)OCCCCCC [Cil.-P, c(f*VR(Hoc)2GD)]

SMILES: C[C@@H]1NC(=O)[C@H](CC(=O)O)NC(=O)CNC(=O)[C@@H](CCCNC(=N)N)NC(=O)[C@H](C)N(C)C(=O)[C@H](C)N(C)C1=O [Peptide 23, c(rGDA*A*A)]
- Papp B→A at 150 min, 10 μg/ml ([2]; Caco-2, Table 3, n = 3): 13.4 ± 0.3 nm/s
- Papp A→B at 150 min, 10 μg/ml [2, 8]: 6.1 ± 0.9 nm/s

SMILES: C[C@@H]1NC(=O)[C@H](CC(=O)O)NC(=O)CNC(=O)[C@H](CCCNC(=N)N)NC(=O)[C@@H](Cc2ccccc2)N(C)C(=O)[C@H](C)N(C)C1=O [Peptide 30, c(*fRGDA*A)]
- affinity for αvβ3, in words (human αvβ3-integrin): subnanomolar affinity
- IC50 (human αvβ3-integrin; Table 1): 0.6 ± 0.2 nM

SMILES: CC(C)[C@@H]1C(=O)N[C@@H](CCCNC(=N)N)C(=O)NCC(=O)N[C@@H](CC(=O)O)C(=O)N[C@@H](C)C(=O)N(C)[C@@H](C)C(=O)N1C [Peptide 29, c(*vRGDA*A)]
- Papp B→A at 150 min, 10 μg/ml ([2]; Caco-2, Table 3, n = 3): 1.5 ± 0.1 nm/s
- Papp A→B at 150 min, 10 μg/ml [2, 8]: 0.7 ± 0.1 nm/s
- LogD, pH 7.4, reported value (mean or bound) ([6]; octanol/PBS pH 7.4): <−1
- logD at 1 h ([6]; pH 7.4, reported value (mean or bound), octanol/PBS pH 7.4): < -1
- logD at 1 h ([6]; pH 7.4, single determinations, octanol/PBS pH 7.4, triplicate values): -1.75
- Net efflux (Papp (BA) / Papp (AB)), in the presence of Verapamil (Caco-2 cells; verapamil 100 μM): 0.1
- Net efflux (Papp (BA) / Papp (AB)) (Caco-2 cells; without verapamil): 0.4
- Papp A→B at 90 min, 10 μM ([7]; Mean, 10 μM): 7 nm/s
- Papp A→B at 90 min, 10 μM ([7]; replicate 1, 10 μM): 10 nm/s
- Papp A→B at 90 min, 10 μM ([7]; replicate 2, 10 μM): 2 nm/s
- Papp A→B at 90 min, 10 μM ([7]; replicate 3, 10 μM): 9 nm/s
- Papp B→A at 90 min, 10 μM ([7]; Mean, 10 μM): 3 nm/s
- Papp B→A at 90 min, 10 μM ([7]; replicate 1, 10 μM): 3 nm/s
- Papp B→A at 90 min, 10 μM ([7]; replicate 2, 10 μM): 4 nm/s
- Papp B→A at 90 min, 10 μM ([7]; replicate 3, 10 μM): 2 nm/s
- affinity for αvβ3, in words (human αvβ3-integrin): subnanomolar affinity; also recorded: subnanomolar IC50

SMILES: C[C@@H]1NC(=O)[C@H](C)N(C)C(=O)[C@H](C)NC(=O)[C@H](CC(=O)O)NC(=O)CNC(=O)[C@@H](CCCNC(=N)N)N(C)C1=O [Peptide 5, c(*rGDA*AA)]
- Papp A→B at 150 min, 10 μg/ml ([2]; Caco-2, running text, unit inferred, read-out: Caco-2 A-to-B Papp): 3 nm/s
- Papp B→A at 150 min, 10 μg/ml ([2]; Caco-2, Table 3, n = 3): 4.2 ± 1.1 nm/s
- Papp A→B at 150 min, 10 μg/ml [2, 8]: 3.8 ± 0.1 nm/s

- Papp A→B [2, 8]: 17.7 ± 5.5 nm/s
- Papp B→A [2, 10]: 748 ± 204 nm/s
- efflux ratio ([2]; Caco-2): 42.2
SMILES: CCCCCCOC(=O)N=C(NCCC[C@H]1NC(=O)[C@H](C)N(C)C(=O)[C@H](C)N(C)C(=O)[C@H](C)NC(=O)[C@H](CC(=O)OC)NC(=O)CNC1=O)NC(=O)OCCCCCC [Peptide 23P, c(r(Hoc)2GD(OMe)A*A*A)] (cyclo(A[NMeA][NMeA][X1]GD(OMe)))

- Papp B→A [2, 10]: 221 ± 35.8 nm/s
- Papp B→A ([2]; Caco-2, running text, unit inferred, read-out: Caco-2 B-to-A Papp): 212 nm/s
- Papp A→B ([2]; Caco-2, unit inferred, read-out: Caco-2 A-to-B Papp (converted)): 6 nm/s
- efflux ratio ([2]; Caco-2): 36.7
SMILES: CCCCCCOC(=O)N=C(NCCC[C@@H]1C(=O)NCC(=O)N[C@@H](CC(=O)OC)C(=O)N[C@@H](C)C(=O)N(C)[C@@H](C)C(=O)N[C@@H](C)C(=O)N1C)NC(=O)OCCCCCC [Peptide 5P, c(*r(Hoc)2GD(OMe)A*AA)] (cyclo(A[NMeA]A[X3]GD(OMe)))
